Measured values taken from US9777003B2, “Tricyclic heterocycles as bet protein inhibitors” (Incyte Corporation, priority 2013, dated 2017).
Where a name gives a salt, the structure may show the parent alone.

Legend:
BRD4-BD1 = BRD4-BD1 (Homo sapiens (Human), UniProt O60885); assay: BRD4 AlphaScreen assay, BRD4-BD1; type: binding; settings: biotin-labeled tetra-acetylated histone H4 peptide, 75 min, room temperature, read-out: BRD4 BD-1 enzyme IC50
Outline: (§1)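 Bromodomain–H4Ac4 peptide (50 nM) proximity assay; BD1 at 3.8 nM, BD2 at 20 nM. Reaction 75 min RT, bead detection 75 min in the dark, IC50 by dose-response fit.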

BRD4-BD2 = BRD4-BD2 (Homo sapiens (Human), UniProt O60885); assay: BRD4 AlphaScreen assay, BRD4-BD2; type: binding; settings: biotin-labeled tetra-acetylated histone H4 peptide, 75 min, room temperature, read-out: BRD4 BD-2 enzyme IC50
Outline: as §1

IC50 (BRD4-BD1)	IC50 (BRD4-BD2)	SMILES
≤ 100 nM	≤ 100 nM	Cc1nnc2ccc3c(cc(-c4ccn(C5CN(S(=O)(=O)N(C)C)C5)n4)n3Cc3cccc(Cl)c3)n12 [Example 161, 3-{3-[6-(3-Chlorobenzyl)-1-methyl-6H-pyrrolo[2,3-e][1,2,4]triazolo[4,3-a]pyridin-7-yl]-1H-pyrazol-1-yl}-N,N-dimethylazetidine-1-sulfonamide bis(trifluoroacetate) Salt]
≤ 100 nM	≤ 100 nM	Cc1nnc2ccc3c(cc(-c4ccn(C5CN(C(=O)CN(C)C)C5)n4)n3Cc3cccc(Cl)c3)n12 [Example 162, 2-(3-{3-[6-(3-Chlorobenzyl)-1-methyl-6H-pyrrolo[2,3-e][1,2,4]triazolo[4,3-a]pyridin-7-yl]-1H-pyrazol-1-yl}azetidin-1-yl)-N,N-dimethyl-2-oxoethanamine bis(trifluoroacetate) Salt]
≤ 100 nM	≤ 100 nM	CCC(=O)N1CC(n2ccc(-c3cc4c(ccc5nnc(C)n54)n3Cc3cccc(Cl)c3)n2)C1 [Example 163, 6-(3-Chlorobenzyl)-1-methyl-7-[1-(1-propionylazetidin-3-yl)-1H-pyrazol-3-yl]-6H-pyrrolo[2,3-e][1,2,4]triazolo[4,3-a]pyridine Trifluoroacetate Salt]
≤ 100 nM	≤ 100 nM	Cc1nnc2ccc3c(cc(-c4ccn(C5CN(C(=O)C6CC6)C5)n4)n3Cc3cccc(Cl)c3)n12 [Example 164, 6-(3-Chlorobenzyl)-7-{1-[1-(cyclopropylcarbonyl)azetidin-3-yl]-1H-pyrazol-3-yl}-1-methyl-6H-pyrrolo[2,3-e][1,2,4]triazolo[4,3-a]pyridine Trifluoroacetate Salt]
≤ 100 nM	≤ 100 nM	Cc1nnc2ccc3c(cc(-c4ccn(C5CN(S(=O)(=O)C6CC6)C5)n4)n3Cc3cccc(Cl)c3)n12 [Example 165, 6-(3-Chlorobenzyl)-7-{1-[1-(cyclopropylsulfonyl)azetidin-3-yl]-1H-pyrazol-3-yl}-1-methyl-6H-pyrrolo[2,3-e][1,2,4]triazolo[4,3-a]pyridine Trifluoroacetate Salt]
≤ 100 nM	≤ 100 nM	CCS(=O)(=O)N1CC(n2ccc(-c3cc4c(ccc5nnc(C)n54)n3Cc3cccc(Cl)c3)n2)C1 [Example 166, 6-(3-Chlorobenzyl)-7-{1-[1-(ethylsulfonyl)azetidin-3-yl]-1H-pyrazol-3-yl}-1-methyl-6H-pyrrolo[2,3-e][1,2,4]triazolo[4,3-a]pyridine Trifluoroacetate Salt]
≤ 100 nM	≤ 100 nM	CCOC(=O)N1CC(n2ccc(-c3cc4c(ccc5nnc(C)n54)n3Cc3cccc(Cl)c3)n2)C1 [Example 167, Ethyl 3-{3-[6-(3-chlorobenzyl)-1-methyl-6H-pyrrolo[2,3-e][1,2,4]triazolo[4,3-a]pyridin-7-yl]-1H-pyrazol-1-yl}azetidine-1-carboxylate Trifluoroacetate Salt]
≤ 100 nM	≤ 100 nM	Cc1nnc2ccc3c(cc(-c4ccn(CCC(=O)NC5COC5)n4)n3Cc3cccc(Cl)c3)n12 [Example 168, 3-{3-[6-(3-Chlorobenzyl)-1-methyl-6H-pyrrolo[2,3-e][1,2,4]triazolo[4,3-a]pyridin-7-yl]-1H-pyrazol-1-yl}-N-oxetan-3-ylpropanamide Trifluoroacetate Salt]
≤ 100 nM	≤ 100 nM	Cc1nnc2ccc3c(cc(-c4ccn(CCC(=O)N5CCOCC5)n4)n3Cc3cccc(Cl)c3)n12 [Example 169, 6-(3-Chlorobenzyl)-1-methyl-7-[1-(3-morpholin-4-yl-3-oxopropyl)-1H-pyrazol-3-yl]-6H-pyrrolo[2,3-e][1,2,4]triazolo[4,3-a]pyridine Trifluoroacetate Salt]
≤ 100 nM	≤ 100 nM	Cc1nnc2ccc3c(cc(-c4ccn(CCC(=O)NC5CCOCC5)n4)n3Cc3cccc(Cl)c3)n12 [Example 170, 3-{3-[6-(3-Chlorobenzyl)-1-methyl-6H-pyrrolo[2,3-e][1,2,4]triazolo[4,3-a]pyridin-7-yl]-1H-pyrazol-1-yl}-N-(tetrahydro-2H-pyran-4-yl)propanamide Trifluoroacetate Salt]
≤ 100 nM	≤ 100 nM	Cc1nnc2ccc3c(cc(-c4ccn(CCC(=O)NC5CN(C)C5)n4)n3Cc3cccc(Cl)c3)n12 [Example 171, 3-{3-[6-(3-Chlorobenzyl)-1-methyl-6H-pyrrolo[2,3-e][1,2,4]triazolo[4,3-a]pyridin-7-yl]-1H-pyrazol-1-yl}-N-(1-methylazetidin-3-yl)propanamide bis(trifluoroacetate) Salt]
≤ 100 nM	≤ 100 nM	Cc1nnc2ccc3c(cc(-c4c[nH]cn4)n3Cc3cccc(Cl)c3)n12 [Example 172, 6-(3-Chlorobenzyl)-7-(1H-imidazol-4-yl)-1-methyl-6H-pyrrolo[2,3-e][1,2,4]triazolo[4,3-a]pyridine bis(trifluoroacetate) Salt]
≤ 100 nM	≤ 100 nM	Cc1nnc2ccc3c(cc(-c4ccn(CCCO)n4)n3Cc3cccc(Cl)c3)n12 [Example 173, 3-{3-[6-(3-Chlorobenzyl)-1-methyl-6H-pyrrolo[2,3-e][1,2,4]triazolo[4,3-a]pyridin-7-yl]-1H-pyrazol-1-yl}propan-1-ol Trifluoroacetate Salt]
≤ 100 nM	≤ 100 nM	CNC(=O)CCn1ccc(-c2cc3c(ccc4nnc(C)n43)n2Cc2cccc(Cl)c2)n1 [Example 174, 3-{3-[6-(3-Chlorobenzyl)-1-methyl-6H-pyrrolo[2,3-e][1,2,4]triazolo[4,3-a]pyridin-7-yl]-1H-pyrazol-1-yl}-N-methylpropanamide Trifluoroacetate Salt]
≤ 100 nM	≤ 100 nM	CCNC(=O)CCn1ccc(-c2cc3c(ccc4nnc(C)n43)n2Cc2cccc(Cl)c2)n1 [Example 175, 3-{3-[6-(3-Chlorobenzyl)-1-methyl-6H-pyrrolo[2,3-e][1,2,4]triazolo[4,3-a]pyridin-7-yl]-1H-pyrazol-1-yl}-N-ethylpropanamide Trifluoroacetate Salt]
≤ 100 nM	≤ 100 nM	Cc1nnc2ccc3c(cc(-c4ccn(CCC(=O)NC(C)(C)C)n4)n3Cc3cccc(Cl)c3)n12 [Example 176, N-(tert-Butyl)-3-{3-[6-(3-chlorobenzyl)-1-methyl-6H-pyrrolo[2,3-e][1,2,4]triazolo[4,3-a]pyridin-7-yl]-1H-pyrazol-1-yl}propanamide Trifluoroacetate Salt]
≤ 100 nM	≤ 100 nM	Cc1nnc2ccc3c(cc(-c4ccn(C5COC5)n4)n3Cc3cccc(Cl)c3)n12 [Example 177, 6-(3-Chlorobenzyl)-1-methyl-7-(1-oxetan-3-yl-1H-pyrazol-3-yl)-6H-pyrrolo[2,3-e][1,2,4]triazolo[4,3-a]pyridine Trifluoroacetate Salt]
≤ 100 nM	≤ 100 nM	Cc1nnc2ccc3c(cc(-c4ccn(CCO)n4)n3Cc3cccc(Cl)c3)n12 [Example 178, 2-{3-[6-(3-Chlorobenzyl)-1-methyl-6H-pyrrolo[2,3-e][1,2,4]triazolo[4,3-a]pyridin-7-yl]-1H-pyrazol-1-yl}ethanol Trifluoroacetate Salt]
≤ 100 nM	≤ 100 nM	Cc1nnc2ccc3c(cc(-c4ccn(C5CN(CCO)C5)n4)n3Cc3cccc(Cl)c3)n12 [Example 179, 2-(3-{3-[6-(3-Chlorobenzyl)-1-methyl-6H-pyrrolo[2,3-e][1,2,4]triazolo[4,3-a]pyridin-7-yl]-1H-pyrazol-1-yl}azetidin-1-yl)ethanol bis(trifluoroacetate) Salt]
